Data on 23 compounds can be found in patent publication US11173145B2, “Compounds useful as inhibitors of indoleamine 2,3-dioxygenase and/or tryptophan dioxygenase” (Board of Regents, The University of Texas System, priority 2017, dated 2021).

Where only a bound is given, the exact number is not on record here.

For experiment [1], the target named is T1, mouse IDO1 (Mus musculus, UniProt P28776).
T1 construct: The murine PANC02 pancreatic ductal adenocarcinoma cell line was routinely maintained in DMEM media; endogenous in cells; host or cells: PANC02 murine pancreatic ductal adenocarcinoma cells, induced with mouse IFNgamma
T1 sequence (P28776 whole entry): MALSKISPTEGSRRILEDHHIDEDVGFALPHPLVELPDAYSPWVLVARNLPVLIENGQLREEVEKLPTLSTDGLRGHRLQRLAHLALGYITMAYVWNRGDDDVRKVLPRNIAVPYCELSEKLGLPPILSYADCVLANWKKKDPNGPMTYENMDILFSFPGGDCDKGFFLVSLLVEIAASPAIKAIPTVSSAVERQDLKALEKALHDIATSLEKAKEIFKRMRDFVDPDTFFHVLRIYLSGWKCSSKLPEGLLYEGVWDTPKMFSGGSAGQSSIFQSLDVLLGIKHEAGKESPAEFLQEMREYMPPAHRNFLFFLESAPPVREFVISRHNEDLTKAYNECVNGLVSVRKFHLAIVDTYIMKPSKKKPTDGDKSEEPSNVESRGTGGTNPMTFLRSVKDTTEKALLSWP
Put plainly: Mouse IDO1 cell-based assay (PANC02 cells, mouse IFNgamma-induced, N-formylkynurenine/L-tryptophan by RFMS). The note with it: 30 ng/mL mouse IFNgamma, 48 hours. On the procedure:
The murine PANC02 pancreatic ductal adenocarcinoma cell line was routinely maintained in DMEM media containing 10% FBS. Cells (3,000/well) were seeded onto a 384 well plate in 50 μl of media and incubated at 37° C., 5% CO2 overnight. Cell media was aspirated, fresh media containing 30 ng/mL mouse IFNgamma (Gibco Life Technologies, cat #PMC4031) was added, and cells were incubated in absence or presence of various concentrations of compounds (final 0.5% DMSO) for 48 hours at 37° C., 5% CO2. Aliquots of the cell conditioned media was removed from the cell plate, and mixed with equal volume of 200 mM ZnSO4 to precipitate media containing protein. Two volumes of acetonitrile were added by mixing, and samples were then centrifuged at 2250G for 20 minutes at 4° C. Aliquots of the supernatant were diluted 1:10 in 0.1% formic acid containing 3 μM of deuterated Tryptophan as an internal standard.
Samples were analyzed via RFMS to quantify N-Formyl Kynurenine (AUC) and L-tryptophan (AUC). A C18 cartridge was used with mobile phases of 0.1% Formic Acid and 80% ACN/0.1% Formic Acid under isocratic conditions. Dose-response curves were analyzed using IC50 regression curve fitting (GeneData Screener). Curves were plotted as percent of control and normalized by high controls without inhibitor (100%), and low controls (0%) containing 1 μM of epacadostat. Cell viability was also assessed using the Cell Titer Glo Kit (Promega) following manufacture recommendation.

Experiment [2] concerns the target T2, IDO1 (Homo sapiens, UniProt P14902).
T2 construct: endogenous in cells; host or cells: HeLa cells (ATCC), IFNgamma-induced
Nature of the experiment: IDO1 cell-based assay (HeLa cells, IFNgamma-induced, N-formylkynurenine/L-tryptophan by RFMS). The note with it: 10 ng/mL IFNgamma, 24 hours. The essentials:
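N-formylkynurenine and tryptophan peak areas in media measured by RFMS (C18, isocratic, d-Trp standard), giving IC50 values by regression. Source: HeLa cells incubated 24 h with IFNgamma (10 ng/mL) plus test compound at 0.5% DMSO; parallel CellTiter-Glo viability read.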

T2 sequence (P14902 whole entry): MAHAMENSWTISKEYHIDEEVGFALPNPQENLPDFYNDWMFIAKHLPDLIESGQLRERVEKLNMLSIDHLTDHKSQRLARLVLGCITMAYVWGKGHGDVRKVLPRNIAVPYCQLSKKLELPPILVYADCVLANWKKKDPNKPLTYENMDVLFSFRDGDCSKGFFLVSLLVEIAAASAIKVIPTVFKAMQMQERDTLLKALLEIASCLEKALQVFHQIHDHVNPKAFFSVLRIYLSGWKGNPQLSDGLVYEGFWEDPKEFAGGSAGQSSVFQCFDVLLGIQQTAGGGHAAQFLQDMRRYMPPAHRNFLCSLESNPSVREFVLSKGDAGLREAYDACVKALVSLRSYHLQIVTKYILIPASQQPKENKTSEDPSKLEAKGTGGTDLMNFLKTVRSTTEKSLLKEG

As for `CCC(NC(=O)c1ccc(Cl)cc1)[C@H]1[C@@H]2C[C@@H](NC(=O)c3cn[nH]c3)C[C@@H]21` (stereo partly drawn) [Compound 177, N-((1R,3s,5S,6r)-6-(1-(4-chlorobenzamido)propyl)bicyclo[3.1.0]hexan-3-yl)-1H-pyrazole-4-carboxamide], the IC50 in experiment [1] was more than 5000 nM; in experiment [2] it was 200 to 2000 nM.

In the case of `O=C(NCc1ccc(Cl)cc1)[C@H]1[C@@H]2CN(c3ncnc4ccc(F)cc34)C[C@@H]21` [Compound 251, (1R,5S,6r)-N-(4-chlorobenzyl)-3-(6-fluoroquinazolin-4-yl)-3-azabicyclo[3.1.0]hexane-6-carboxamide], the IC50 in experiment [1] and in experiment [2] was more than 5000 nM in each case.

With `CCC(NC(=O)c1ccc(Cl)cc1)[C@H]1[C@@H]2C[C@@H](Oc3nc4cc(F)ccc4[nH]3)C[C@@H]21` (stereo partly drawn) [Compound 193, 4-chloro-N-(1-((1R,3s,5S,6r)-3-((6-fluoro-1H-benzo[d]imidazol-2-yl)oxy)bicyclo[3.1.0]hexan-6-yl)propyl)benzamide], the IC50 in experiment [1] was 500 to 2000 nM; in experiment [2], 200 to 2000 nM.

On to `CCC(NC(=O)c1ccc(Cl)cc1)[C@H]1[C@@H]2C[C@@H](n3c(=O)[nH]c4ccccc43)C[C@@H]21` (stereo partly drawn) [Compound 180, 4-chloro-N-(1-((1R,3s,5S,6r)-3-(2-oxo-2,3-dihydro-1H-benzo[d]imidazol-1-yl)bicyclo[3.1.0]hexan-6-yl)propyl)benzamide], for which the IC50 was 500 to 2000 nM in experiment [1] and 200 to 2000 nM in experiment [2].

Turning to `CCC(NC(=O)c1ccc(Cl)cc1)[C@H]1[C@@H]2C[C@H](NC(=O)c3nccc(C(F)(F)F)c3Cl)C[C@@H]21` (stereo partly drawn) [Compound 222, 3-chloro-N-((1R,3r,5S,6r)-6-(1-(4-chlorobenzamido)propyl)bicyclo[3.1.0]hexan-3-yl)-4-(trifluoromethyl)picolinamide], the values for the IC50 in experiment [1] and in experiment [2] were 500 to 2000 nM and 200 to 2000 nM, respectively.

Consider `O=C(Nc1ccc(Cl)cc1)[C@@H]1[C@@H]2CN(c3ncnc4ccc(F)cc34)C[C@@H]21` [Compound 250, (1R,5S,6s)-N-(4-chlorophenyl)-3-(6-fluoroquinazolin-4-yl)-3-azabicyclo[3.1.0]hexane-6-carboxamide], for which the IC50 in experiment [1] and in experiment [2] was more than 5000 nM each time.

Consider `CCC(NC(=O)c1ccc(Cl)cc1)[C@H]1[C@@H]2C[C@@H](NC(=O)c3ncccc3F)C[C@@H]21` (stereo partly drawn) [Compound 188, N-((1R,3s,5S,6r)-6-(1-(4-chlorobenzamido)propyl)bicyclo[3.1.0]hexan-3-yl)-3-fluoropicolinamide], for which the IC50 was 500 to 2000 nM in experiment [1] and less than 200 nM in experiment [2].

`CCC(NC(=O)c1ccc(Cl)cc1)[C@H]1[C@@H]2C[C@@H](n3cc4cccc(F)c4n3)C[C@@H]21` (stereo partly drawn) [Compound 205, 4-chloro-N-(1-((1R,3s,5S,6r)-3-(7-fluoro-2H-indazol-2-yl)bicyclo[3.1.0]hexan-6-yl)propyl)benzamide]: the IC50 in experiment [1] was less than 500 nM; in experiment [2], less than 200 nM.

For the compound `CCC(NC(=O)c1ccc(Cl)cc1)[C@H]1[C@@H]2C[C@@H](NC(C(=O)O)c3ccccc3)C[C@@H]21` (stereo partly drawn) [Compound 217, 2-(((1R,3s,5S,6r)-6-(1-(4-chlorobenzamido)propyl)bicyclo[3.1.0]hexan-3-yl)amino)-2-phenylacetic acid], the IC50 in experiment [1] and in experiment [2] was more than 5000 nM throughout.

As to `CCC(NC(=O)c1ccc(Cl)cc1)[C@H]1[C@@H]2C[C@@H](n3ncc(-c4ccccc4)n3)C[C@@H]21` (stereo partly drawn) [Compound 204, 4-chloro-N-(1-((1R,3s,5S,6r)-3-(4-phenyl-2H-1,2,3-triazol-2-yl)bicyclo[3.1.0]hexan-6-yl)propyl)benzamide], the IC50 in experiment [1] was 500 to 2000 nM; in experiment [2] it was less than 200 nM.

Take `CCC(NC(=O)c1ccc(Cl)cc1)[C@H]1[C@@H]2C[C@H](n3nncc3C3CC3)C[C@@H]21` (stereo partly drawn) [Compound 191, 4-chloro-N-(1-((1R,3r,5S,6r)-3-(5-cyclopropyl-1H-1,2,3-triazol-1-yl)bicyclo[3.1.0]hexan-6-yl)propyl)benzamide]: the IC50 in experiment [1] is 500 to 2000 nM; in experiment [2], 200 to 2000 nM.

`CCC(NC(=O)c1ccc(Cl)cc1)[C@H]1[C@@H]2C[C@@H](n3cc(N(C)C)nn3)C[C@@H]21` (stereo partly drawn) [Compound 238, 4-chloro-N-(1-((1R,3s,5S,6r)-3-(4-(dimethylamino)-1H-1,2,3-triazol-1-yl)bicyclo[3.1.0]hexan-6-yl)propyl)benzamide]: the IC50 in experiment [1] was less than 500 nM; in experiment [2] it was less than 200 nM.

For `CCC(NC(=O)c1ccc(Cl)cc1)[C@H]1[C@@H]2C[C@@H](n3ncc4c(F)cccc43)C[C@@H]21` (stereo partly drawn) [Compound 210, 4-chloro-N-(1-((1R,3s,5S,6r)-3-(4-fluoro-1H-indazol-1-yl)bicyclo[3.1.0]hexan-6-yl)propyl)benzamide], the IC50 is 500 to 2000 nM in experiment [1] and less than 200 nM in experiment [2].

For the compound `CCC(NC(=O)c1ccc(Cl)cc1)[C@H]1[C@@H]2C[C@H](n3cc(CO)nn3)C[C@@H]21` (stereo partly drawn) [Compound 187, 4-chloro-N-(1-((1R,3r,5S,6r)-3-(4-(hydroxymethyl)-1H-1,2,3-triazol-1-yl)bicyclo[3.1.0]hexan-6-yl)propyl)benzamide], the IC50 in experiment [1] lay within 2000 to 5000 nM; in experiment [2], 200 to 2000 nM.

For the compound `CCC(NC(=O)c1ccc(Cl)cc1)[C@H]1[C@@H]2C[C@@H](N3CCOC3=O)C[C@@H]21` (stereo partly drawn) [Compound 185, 4-chloro-N-(1-((1R,3s,5S,6r)-3-(2-oxooxazolidin-3-yl)bicyclo[3.1.0]hexan-6-yl)propyl)benzamide], the 50% inhibitory concentration (IC50) lay within 2000 to 5000 nM in experiment [1] and 200 to 2000 nM in experiment [2].

Consider `CCC(NC(=O)c1ccc(Cl)cc1)[C@H]1[C@@H]2C[C@@H](C(C(=O)OC)c3ccccc3)C[C@@H]21` (mixture of isomers) [Compound 203, methyl (S)-2-((R, 3R, 5S,6S)-6-((S)-1-(4-chlorobenzamido)propyl)bicyclo[3.1.0]hexan-3-yl)-2-phenylacetate and methyl (R)-2-((1R,3R,5S, 6S)-6-((R)-1-(4-chlorobenzamido)propyl)bicyclo[3.1.0]hexan-3-yl)-2-phenylacetate], for which the values for the IC50 in experiment [1] and in experiment [2] were less than 500 nM and 200 to 2000 nM, respectively.

As to `COCc1cn([C@@H]2C[C@@H]3[C@H](C2)[C@H]3C(C)NC(=O)c2ccc(C#N)cc2)nn1` (stereo partly drawn) [Compound 242, 4-cyano-N-(1-((1R,3s,5S,6r)-3-(4-(methoxymethyl)-1H-1,2,3-triazol-1-yl)bicyclo[3.1.0]hexan-6-yl)ethyl)benzamide], the IC50 is more than 5000 nM in experiment [1] and 200 to 2000 nM in experiment [2].

As to `CCC(NC(=O)c1ccc(Cl)cc1)[C@H]1[C@@H]2C[C@@H](n3cc(NC(C)=O)nn3)C[C@@H]21` (stereo partly drawn) [Compound 256, N-(1-((1R,3s,5S,6r)-3-(4-acetamido-1H-1,2,3-triazol-1-yl)bicyclo[3.1.0]hexan-6-yl)propyl)-4-chlorobenzamide], the IC50 in experiment [1] and in experiment [2] was more than 5000 nM each time.

On to `CCc1cnnn1[C@@H]1C[C@@H]2[C@H](C1)[C@H]2C(CC)NC(=O)c1ccc(Cl)cc1` (stereo partly drawn) [Compound 165, 4-chloro-N-(1-((1R,3s,5S,6r)-3-(5-ethyl-1H-1,2,3-triazol-1-yl)bicyclo[3.1.0]hexan-6-yl)propyl)benzamide], for which the IC50 is less than 500 nM in experiment [1] and less than 200 nM in experiment [2].

Regarding `CCC(NC(=O)c1ccc(Cl)cc1)[C@H]1[C@@H]2C[C@@H](Nc3c([N+](=O)[O-])ccc(F)c3F)C[C@@H]21` (stereo partly drawn) [Compound 244, 4-chloro-N-(1-((1R,3s,5S,6r)-3-((2,3-difluoro-6-nitrophenyl)amino)bicyclo[3.1.0]hexan-6-yl)propyl)benzamide], the figures for the IC50 in experiment [1] and in experiment [2] were 500 to 2000 nM and less than 200 nM, respectively.

In the case of `CCC(NC(=O)c1ccc(Cl)cc1)[C@H]1[C@@H]2C[C@@H](n3cc4cccnc4n3)C[C@@H]21` (stereo partly drawn) [Compound 211, N-(1-((1R,3s,5S,6r)-3-(2H-pyrazolo[3,4-b]pyridin-2-yl)bicyclo[3.1.0]hexan-6-yl)propyl)-4-chlorobenzamide], the IC50 is less than 500 nM in experiment [1] and less than 200 nM in experiment [2].

`CCC(NC(=O)c1ccc(Cl)cc1)[C@H]1[C@@H]2C[C@@H](n3cc(N4C(=O)c5ccccc5C4=O)nn3)C[C@@H]21` (stereo partly drawn) [Compound 232, 4-chloro-N-(1-((1R,3s,5S,6r)-3-(4-(1,3-dioxoisoindolin-2-yl)-1H-1,2,3-triazol-1-yl)bicyclo[3.1.0]hexan-6-yl)propyl)benzamide]: the IC50 in experiment [1] and in experiment [2] was more than 5000 nM throughout.

As for `CCC(NC(=O)c1ccc(Cl)cc1)[C@H]1[C@@H]2C[C@@H](C(C#N)c3ccccc3)C[C@@H]21` (stereo partly drawn) [Compound 166, 4-chloro-N-(1-((1R,3s,5 S,6r)-3-(cyano(phenyl)methyl)bicyclo[3.1.0]hexan-6-yl)propyl) benzamide], the values for the IC50 in experiment [1] and in experiment [2] were less than 500 nM and less than 200 nM, respectively.
